From BindingDB's records for doi:10.1021/jm050738x (University of Tokyo, 2006)

test: Antagonist activity assessed by differentiation of 1,25-D3-induced HL60 cells

Question: With `C=C1/C(=C\C=C2/CCC[C@]3(C)[C@@H]([C@H](C)C[C@H]4C[C@](C)(O)C(=O)N4CCCc4ccccc4)CC[C@@H]23)C[C@@H](O)C[C@@H]1O` [(3S,5S)-5-((R)-2-((1R,3aS,7aR)-4-(2-((3S,5R)-3,5-dihydroxy-2-methylenecyclohexylidene)ethylidene)-7a-methyl-octahydro-1H-inden-1-yl)propyl)-3-hydroxy-3-methyl-1-(3-phenylpropyl)pyrrolidin-2-one] as the compound, how does the IC50 read?
Answer: 2.2 µM

Question: With `C=C1/C(=C\C=C2/CCC[C@]3(C)[C@@H]([C@H](C)C[C@H]4C[C@](C)(O)C(=O)N4CCc4ccccc4)CC[C@@H]23)C[C@@H](O)C[C@@H]1O` [(3S,5S)-5-((R)-2-((1R,3aS,7aR)-4-(2-((3S,5R)-3,5-dihydroxy-2-methylenecyclohexylidene)ethylidene)-7a-methyl-octahydro-1H-inden-1-yl)propyl)-3-hydroxy-3-methyl-1-phenethylpyrrolidin-2-one] as the compound, how does the IC50 read?
Answer: 0.207 µM

Question: Which IC50 does the source give for `C=C1/C(=C\C=C2/CCC[C@@]3(C)C2CC[C@@H]3[C@H](C)C[C@H]2C[C@](C)(O)C(=O)N2C(C)C)C[C@@H](O)C[C@@H]1O` (some centres not stated) here?
Answer: > 1 µM

Question: With `C=C1/C(=C\C=C2/CCC[C@]3(C)[C@@H]([C@H](C)C[C@H]4C[C@](C)(O)C(=O)N4Cc4ccccc4)CC[C@@H]23)C[C@@H](O)C[C@@H]1O` [(3S,5S)-1-benzyl-5-((R)-2-((1R,3aS,7aR)-4-(2-((3S,5R)-3,5-dihydroxy-2-methylenecyclohexylidene)ethylidene)-7a-methyl-octahydro-1H-inden-1-yl)propyl)-3-hydroxy-3-methylpyrrolidin-2-one] as the compound, how does the IC50 read?
Answer: 0.7 µM

Question: With `C=C1/C(=C\C=C2/CCC[C@]3(C)[C@@H]([C@H](C)C[C@H]4C[C@](C)(O)C(=O)N4CCCCc4ccccc4)CC[C@@H]23)C[C@@H](O)C[C@@H]1O` [(3S,5S)-5-((R)-2-((1R,3aS,7aR)-4-(2-((3S,5R)-3,5-dihydroxy-2-methylenecyclohexylidene)ethylidene)-7a-methyl-octahydro-1H-inden-1-yl)propyl)-3-hydroxy-3-methyl-1-(4-phenylbutyl)pyrrolidin-2-one] as the compound, how does the IC50 read?
Answer: 0.39 µM

Question: For `C=C1/C(=C\C=C2/CCC[C@@]3(C)C2CC[C@@H]3[C@H](C)C[C@H]2C[C@](C)(O)C(=O)N2Cc2ccc(OC)cc2)C[C@@H](O)C[C@@H]1O` (some centres not stated), which IC50 is on record?
Answer: 0.66 µM

Question: For `C=C1/C(=C\C=C2/CCC[C@]3(C)[C@@H]([C@H](C)C[C@H]4C[C@@](C)(O)C(=O)N4CCc4ccccc4)CC[C@@H]23)C[C@@H](O)C[C@@H]1O` [(3R,5S)-5-((R)-2-((1R,3aS,7aR,E)-4-((Z)-2-((3S,5R)-3,5-dihydroxy-2-methylenecyclohexylidene)ethylidene)-7a-methyloctahydro-1H-inden-1-yl)propyl)-3-hydroxy-3-methyl-1-phenethylpyrrolidin-2-one], which IC50 is on record?
Answer: > 2 µM
